From patent US20260297109A1, “COMPOUNDS AS SUMO ACTIVATING ENZYME INHIBITORS” (WIGEN BIOMEDICINE TECHNOLOGY (SHANGHAI) CO., LTD., priority 2022, published 2026) come the findings set out here.

For orientation: pIC50 means −log10 of the IC50, conventionally taken in molar units. The low end stands for a high IC50, the high end for a low IC50.

Molecules are shown by their SMILES. pIC50: −log10 of the molar value.

The first test concerns the target T1, SAE (Homo sapiens, UniProt Q9UBT2).
T1 construct: endogenous in cells; host or cells: HCT116
T1 sequence (Q9UBT2 1-640): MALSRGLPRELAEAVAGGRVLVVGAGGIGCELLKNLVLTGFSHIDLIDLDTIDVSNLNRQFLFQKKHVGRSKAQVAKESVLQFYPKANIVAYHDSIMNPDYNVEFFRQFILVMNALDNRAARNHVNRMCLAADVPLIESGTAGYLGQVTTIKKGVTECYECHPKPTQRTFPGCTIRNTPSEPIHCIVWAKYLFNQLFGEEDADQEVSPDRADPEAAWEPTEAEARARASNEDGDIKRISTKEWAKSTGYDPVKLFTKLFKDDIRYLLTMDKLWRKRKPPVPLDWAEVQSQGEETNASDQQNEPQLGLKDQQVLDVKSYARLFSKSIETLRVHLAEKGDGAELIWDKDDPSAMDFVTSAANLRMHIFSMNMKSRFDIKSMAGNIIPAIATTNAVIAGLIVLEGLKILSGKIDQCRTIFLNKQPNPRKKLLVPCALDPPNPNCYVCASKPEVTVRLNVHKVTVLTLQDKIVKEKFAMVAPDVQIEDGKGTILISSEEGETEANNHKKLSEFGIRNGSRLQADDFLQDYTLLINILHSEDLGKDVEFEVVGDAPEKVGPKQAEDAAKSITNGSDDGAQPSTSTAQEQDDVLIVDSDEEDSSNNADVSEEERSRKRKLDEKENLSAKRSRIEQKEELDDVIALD
T1 sequence (Q9UBE0 1-346): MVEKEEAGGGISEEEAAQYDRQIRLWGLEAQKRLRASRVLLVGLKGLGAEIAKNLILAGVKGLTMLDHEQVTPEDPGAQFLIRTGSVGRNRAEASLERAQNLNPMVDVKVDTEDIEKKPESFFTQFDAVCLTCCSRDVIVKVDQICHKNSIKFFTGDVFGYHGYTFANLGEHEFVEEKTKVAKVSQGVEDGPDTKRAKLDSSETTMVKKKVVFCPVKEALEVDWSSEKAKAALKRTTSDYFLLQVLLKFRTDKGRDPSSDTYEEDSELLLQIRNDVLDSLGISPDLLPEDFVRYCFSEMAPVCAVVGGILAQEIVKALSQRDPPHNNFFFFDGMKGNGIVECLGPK
Put plainly: SUMO IF: in vitro inhibitory activity assay against SAE in HCT116 cells (SUMO-2/3 immunofluorescence). Format: cell-based. Particulars: class symbols, 6 h at 37° C. Put shortly:
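HCT116 cells were treated with compound for 6 h at 37 °C, then PFA-fixed, Triton-permeabilised and BSA-blocked. They were stained overnight at 4 °C with anti-SUMO-2/3 (18H8) rabbit mAb (1:400), then with FITC anti-rabbit IgG (1:300). Fluorescence versus DMSO gave inhibition rate and IC50.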
For `CC1Cc2ccc(Cl)cc2[C@]2(CCCc3sc(C(=O)c4cncnc4N[C@H]4C[C@H](O)[C@@H](COS(N)(=O)=O)[C@@H]4F)cc32)N1` (stereo partly shown) [Compound 1024], the pIC50 was under 6.70. `COc1ccc2c(c1)C(c1cc(C(=O)c3cncnc3N[C@H]3C[C@H](O)[C@@H](COS(N)(=O)=O)[C@@H]3F)sc1C)NCC2` (stereo partly shown) [Compound 243]: the negative logarithm of the IC50 (pIC50) is under 6.70.

As for `NS(=O)(=O)OC[C@H]1[C@H](F)[C@@H](Nc2ncncc2C(=O)c2cc3c(s2)CCC32NCCc3ccccc32)C[C@@H]1O` (stereo partly shown) [Compound 127], the pIC50 is under 6.70.

For `NS(=O)(=O)OC[C@H]1[C@H](F)[C@@H](Nc2ncncc2C(=O)c2cc3c(s2)CCCC32NCCc3cnc(Cl)cc32)C[C@@H]1O` (stereo partly shown) [Compound 597], the negative-log IC50 (pIC50) was 6.70 to 7.30. The same measure, in the same setting: as for `CCN1Cc2sc(C(=O)c3cncnc3N[C@H]3C[C@H](O)[C@@H](COS(N)(=O)=O)[C@@H]3F)cc2[C@@]2(C1)OCCc1ccc(F)cc12` [Compound 727], the figure is under 6.70; as for `NS(=O)(=O)OC[C@H]1[C@H](F)[C@@H](Nc2ncncc2C(=O)c2cc3c(s2)COC[C@@]32NCCc3ccc(F)cc32)C[C@@H]1O` [Compound 101], under 6.70; as for `CN1Cc2sc(C(=O)c3cncnc3N[C@H]3C[C@H](O)[C@@H](COS(N)(=O)=O)[C@@H]3F)cc2[C@]2(C1)OCCc1ccc(Cl)cc12` [Compound 725], at least 7.30. The compound `CC(C)N1Cc2sc(C(=O)c3cncnc3N[C@H]3C[C@H](O)[C@@H](COS(N)(=O)=O)[C@@H]3F)cc2[C@@]2(C1)OCCc1ccc(Cl)cc12` [Compound 736] gave a pIC50 of under 6.70. In turn, `N#Cc1ccc2c(c1)[C@@]1(CCCc3sc(C(=O)c4cncnc4N[C@H]4C[C@H](O)[C@@H](COS(N)(=O)=O)[C@@H]4F)cc31)OCC2` [Compound 716] gave a pIC50 of at least 7.30.

Compound `N#Cc1ccc2c(c1)[C@@]1(CCc3sc(C(=O)c4cncnc4N[C@H]4C[C@H](O)[C@@H](COS(N)(=O)=O)[C@@H]4F)cc31)NCC2` [Compound 138] showed a pIC50 of 6.70 to 7.30. The same measure, in the same setting: as for `NS(=O)(=O)OC[C@H]1[C@H](F)[C@@H](Nc2ncncc2C(=O)c2cc3c(s2)CCC[C@]32NCCc3cnc(Cl)cc32)C[C@@H]1O` [Compound 599], the figure is at least 7.30; as for `Cc1sc(C(=O)c2cncnc2N[C@H]2C[C@H](O)[C@@H](COS(N)(=O)=O)[C@@H]2F)cc1C1NCCc2cc(F)c(Cl)c(F)c21` (stereo partly shown) [Compound 251], 6.70 to 7.30. For the compound `NS(=O)(=O)OC[C@H]1[C@H](F)[C@@H](Nc2ncncc2C(=O)c2cc3c(s2)COC32NCCc3ccc(Cl)cc32)C[C@@H]1O` (stereo partly shown) [Compound 164], the negative-log IC50 (pIC50) is 6.70 to 7.30. `NS(=O)(=O)OC[C@H]1[C@H](F)[C@@H](Nc2ncncc2C(=O)c2cc(C3NCCc4ccc(Cl)cc43)c(C3CC3)s2)C[C@@H]1O` (stereo partly shown) [Compound 984] showed a pIC50 of 6.70 to 7.30. Compound `Cc1sc(C(=O)c2cncnc2N[C@H]2C[C@H](O)[C@@H](COS(N)(=O)=O)[C@@H]2F)cc1C1NCCc2cc(Cl)c(F)cc21` (stereo partly shown) [Compound 252] had a pIC50 of 6.70 to 7.30. Same read-out and setting: to `Cc1sc(C(=O)c2cncnc2N[C@H]2C[C@H](O)[C@@H](COS(N)(=O)=O)[C@@H]2F)cc1C1NCCc2cc(F)c(Cl)cc21` (stereo partly shown) [Compound 246] belongs 6.70 to 7.30; to `NS(=O)(=O)OC[C@H]1[C@H](F)[C@@H](Nc2ncncc2C(=O)c2cc3c(s2)CCCC32OCCc3ccc(Cl)cc32)C[C@@H]1O` (stereo partly shown) [Compound 126], at least 7.30; to `NS(=O)(=O)OC[C@H]1[C@H](F)[C@@H](Nc2ncncc2C(=O)c2cc3c(s2)CCC[C@]32OCCc3ccc(F)cc32)C[C@@H]1O` [Compound 713], at least 7.30. The same measure, in the same setting: to `NS(=O)(=O)OC[C@H]1[C@H](F)[C@@H](Nc2ncncc2C(=O)c2cc3c(s2)COC[C@]32NCCc3c(Cl)cc(Cl)cc32)C[C@@H]1O` [Compound 566] belongs 6.70 to 7.30. With `CC1=C[C@]2(NCCc3ccc(Cl)cc32)c2cc(C(=O)c3cncnc3N[C@H]3C[C@H](O)[C@@H](COS(N)(=O)=O)[C@@H]3F)sc21` [Compound 326], the pIC50 is at least 7.30.

In turn, `NS(=O)(=O)OC[C@H]1[C@H](F)[C@@H](Nc2ncncc2C(=O)c2cc3c(s2)OCC[C@]32NCCc3ccc(Cl)cc32)C[C@@H]1O` [Compound 682] showed a negative-log IC50 (pIC50) of 6.70 to 7.30. Compound `NS(=O)(=O)OC[C@H]1[C@H](F)[C@@H](Nc2ncncc2C(=O)c2cc3c(s2)COC[C@]32NCCc3ccc(Cl)c(F)c32)C[C@@H]1O` [Compound 569] had a pIC50 of 6.70 to 7.30. Compound `NS(=O)(=O)OC[C@H]1[C@H](F)[C@@H](Nc2ncncc2C(=O)c2cc3c(s2)CCC[C@]32OCCc3ccccc32)C[C@@H]1O` [Compound 710] gave a negative-log IC50 (pIC50) of 6.70 to 7.30. On the same count and under the same terms, as for `NS(=O)(=O)OC[C@H]1[C@H](F)[C@@H](Nc2ncncc2C(=O)c2cc3c(s2)COC[C@]32NCCc3ccc(F)cc32)C[C@@H]1O` [Compound 102], the figure is 6.70 to 7.30; as for `NS(=O)(=O)OC[C@H]1[C@H](F)[C@@H](Nc2ncncc2C(=O)c2cc3c(s2)CCCC32NCCc3cc(F)c(Cl)cc32)C[C@@H]1O` (stereo partly shown) [Compound 111], at least 7.30. Same read-out and setting: to `N#Cc1cc2c(cc1Cl)[C@@]1(CCCc3sc(C(=O)c4cncnc4N[C@H]4C[C@H](O)[C@@H](COS(N)(=O)=O)[C@@H]4F)cc31)NCC2` [Compound 674] belongs at least 7.30; to `NS(=O)(=O)OC[C@H]1[C@H](F)[C@@H](Nc2ncncc2C(=O)c2cc3c(s2)CCC[C@]32NCCc3ccccc32)C[C@@H]1O` [Compound 87], at least 7.30; to `NS(=O)(=O)OC[C@H]1[C@H](F)[C@@H](Nc2ncncc2C(=O)c2cc3c(s2)C(F)=CC32NCCc3ccc(Cl)cc32)C[C@@H]1O` (stereo partly shown) [Compound 321], at least 7.30. On the same count and under the same terms, to `NS(=O)(=O)OC[C@H]1[C@H](F)[C@@H](Nc2ncncc2C(=O)c2cc3c(s2)CCC32NCCc3ccc(Cl)cc32)C[C@@H]1O` (stereo partly shown) [Compound 130] belongs 6.70 to 7.30; to `CC1Cc2ccc(Cl)cc2[C@]2(C=Cc3sc(C(=O)c4cncnc4N[C@H]4C[C@H](O)[C@@H](COS(N)(=O)=O)[C@@H]4F)cc32)N1` (stereo partly shown) [Compound 1057], under 6.70. `NS(=O)(=O)OC[C@H]1[C@H](F)[C@@H](Nc2ncncc2C(=O)c2cc3c(s2)CCCC32NCCc3cc(F)c(F)cc32)C[C@@H]1O` (stereo partly shown) [Compound 110] had a pIC50 of 6.70 to 7.30.

With `Cc1sc(C(=O)c2cncnc2N[C@H]2C[C@H](O)[C@@H](COS(N)(=O)=O)[C@@H]2F)cc1C1NCCc2ccncc21` (stereo partly shown) [Compound 253], the negative-log IC50 (pIC50) is 6.70 to 7.30.

In turn, `NS(=O)(=O)CC[C@H]1[C@H](F)[C@@H](Nc2ncncc2C(=O)c2cc3c(s2)CCC[C@@]32NCCc3ccc(Cl)cc32)C[C@@H]1O` [Compound 637] had a negative logarithm of the IC50 (pIC50) of under 6.70.

Staying with this test, now noted: numeric values, 6 h at 37° C.
In turn, `CN1Cc2sc(C(=O)c3cncnc3N[C@H]3C[C@H](O)[C@@H](COS(N)(=O)=O)[C@@H]3F)cc2[C@@]2(C1)NCCc1ccc(Cl)cc12` [Compound 577] had a negative logarithm of the IC50 (pIC50) of under 6.00. The compound `NS(=O)(=O)OC[C@H]1[C@H](F)[C@@H](Nc2ncncc2C(=O)c2cc3c(s2)CN(CC(F)(F)F)C[C@@]32NCCc3ccc(Cl)cc32)C[C@@H]1O` [Compound 652] showed a negative logarithm of the IC50 (pIC50) of under 6.00. As to `NS(=O)(=O)OC[C@H]1[C@H](F)[C@@H](Nc2ncncc2C(=O)c2cc3c(s2)CC[C@@]32NCCc3ccc(F)cc32)C[C@@H]1O` [Compound 134], the pIC50 is under 6.00. Still for that read-out and setting: as for `[2H]C1([2H])Cc2ccc(Cl)cc2[C@@]2(CCCc3sc(C(=O)c4cncnc4N[C@H]4C[C@H](O)[C@@H](COS(N)(=O)=O)[C@@H]4F)cc32)N1` [Compound 662], the figure is 7.63.
